Results from patent publication US9156801B2, “2-substituted oleanolic acid derivative, method preparing for same, and application thereof” (HANGZHOU BENSHENG PHARMACEUTICAL CO., LTD., priority 2011, dated 2015).
In brackets after ≈: the same amount, converted by molar mass.

Assays:
RKO cell line = test: solid tumor cell growth inhibition, MTT; type: cell-based; settings: Homo sapiens, 72 h; for inhibition at 16 µg/mL: 16 μg/mL compound, read-out: IR (cell proliferation inhibition rate)
Method: (§1) Hep-2 (laryngeal carcinoma), A549 (human lung cancer), CaES-17 (esophageal cancer cell), PC-3 (prostate cancer), CNE (nasopharyngeal carcinoma cell), and SK-OV-3 (ovarian cancer cell), all of which are purchased from China Center For Type Culture Collection; RKO (human colon adenocarcinoma cell), MGC 803 (human gastric cancer cell), MG63 (osteosarcoma) and U87 MG (malignant glioma cell), all of which are purchased from Fuxiang Bio-tech Co. Ltd., Shanghai, China; PANC-1 (pancreatic cancer), Hep G2 (human liver cancer cell), Becap37 (human breast cancer cell), and Hela (human cervical cancer cell), all of which are donated by Cancer Research Institute of Zhejiang University, China.
(§2) Obtaining 4000 well-growing human solid tumor cells and inoculating them into wells of a 96-well cell culture plate. The culture medium is DMEM High Glucose cell culture medium containing 10% fetal bovine serum. The plate is placed in a carbon dioxide cell incubator (5% CO2) at 37° C. for 24 hours. After adding the 2-substituted oleanolic acid derivatives of different concentrations and mixing uniformly, the plate is placed in a carbon dioxide cell incubator (5% CO2) at 37° C. and incubated for 72 hours. Then the relative number of the living cells is determined by MTT method. In this experiment, the cell proliferation inhibition rate in control group (not treated with any compound) is set as 0%.

MGC 803 cell line = test: solid tumor cell growth inhibition, MTT; type: cell-based; settings: Homo sapiens; for inhibition at 16 µg/mL: MGC 803, 16 μg/mL compound, 72 h, read-out: IR (cell proliferation inhibition rate); for IC50: MGC 803, 72 h
Method: as §1, §2

A549 cell line = test: solid tumor cell growth inhibition, MTT; type: cell-based; settings: Homo sapiens; for IC50: A549, 72 h; for inhibition at 16 µg/mL: A549, 16 μg/mL compound, 72 h, read-out: IR (cell proliferation inhibition rate)
Method: as §1, §2

PC-3 cell line = test: solid tumor cell growth inhibition, MTT; type: cell-based; settings: Homo sapiens; for IC50: PC-3, 72 h; for inhibition at 16 µg/mL: PC-3, 16 μg/mL compound, 72 h, read-out: IR (cell proliferation inhibition rate)
Method: as §1, §2

U87 MG cell line = test: solid tumor cell growth inhibition, MTT; type: cell-based; settings: Homo sapiens, U-87 MG, 72 h; for inhibition at 16 µg/mL: 16 μg/mL compound, read-out: IR (cell proliferation inhibition rate)
Method: as §1, §2

Hep-2 cell line = test: solid tumor cell growth inhibition, MTT; type: cell-based; settings: Homo sapiens; for IC50: HEp-2, 72 h; for inhibition at 16 µg/mL: Hep-2, 16 μg/mL compound, 72 h, read-out: IR (cell proliferation inhibition rate)
Method: as §1, §2

PANC-1 cell line = test: solid tumor cell growth inhibition, MTT; type: cell-based; settings: Homo sapiens; for IC50: PANC-1, 72 h; for inhibition at 16 µg/mL: PANC-1, 16 μg/mL compound, 72 h, read-out: IR (cell proliferation inhibition rate)
Method: as §1, §2

Hela cell line = test: solid tumor cell growth inhibition, MTT; type: cell-based; settings: Homo sapiens, 72 h; for IC50: HeLa; for inhibition at 16 µg/mL: Hela, 16 μg/mL compound, read-out: IR (cell proliferation inhibition rate)
Method: as §1, §2

CaES-17 cell line = test: solid tumor cell growth inhibition, MTT; type: cell-based; settings: Homo sapiens, CaEs17; for inhibition at 16 µg/mL: CaES-17, 16 μg/mL compound, 72 h, read-out: IR (cell proliferation inhibition rate); for IC50: CaES-17, 72 h
Method: as §1, §2

SK-OV-3 cell line = test: solid tumor cell growth inhibition, MTT; type: cell-based; settings: Homo sapiens; for IC50: SK-OV-3, 72 h; for inhibition at 16 µg/mL: SK-OV-3, 16 μg/mL compound, 72 h, read-out: IR (cell proliferation inhibition rate)
Method: as §1, §2

MG-63 cell line = test: solid tumor cell growth inhibition, MTT; type: cell-based; settings: Homo sapiens; for IC50: MG-63, 72 h; for inhibition at 16 µg/mL: MG-63, 16 μg/mL compound, 72 h, read-out: IR (cell proliferation inhibition rate)
Method: as §1, §2

CNE cell line = test: solid tumor cell growth inhibition, MTT; type: cell-based; settings: Homo sapiens, 72 h; for inhibition at 16 µg/mL: 16 μg/mL compound, read-out: IR (cell proliferation inhibition rate)
Method: as §1, §2

Becap37 cell line = test: solid tumor cell growth inhibition, MTT; type: cell-based; settings: Homo sapiens; for inhibition at 16 µg/mL: Becap37, 16 μg/mL compound, 72 h, read-out: IR (cell proliferation inhibition rate); for IC50: Becap37, 72 h
Method: as §1, §2

H9 cell line = test: leukemia cell growth inhibition, MTT; type: cell-based; settings: Homo sapiens; for IC50: H9, 72 h; for inhibition at 16 µg/mL: H9, 16 μg/mL compound, 72 h, read-out: IR (cell proliferation inhibition rate)
Source text: (§3) Leukemia cell lines: leukemia cell lines: K562/adr (drug-resistant, chronic myeloid leukemia, CML), NB4 (acute promyelocytic leukemia, AML), Kasumi-1 (acute myeloid leukemia M2 type, AML-M2), Jurkat (acute lymphoblastic leukemia, ALL), all of which are donated by Cancer Research Institute of Zhejiang University, China; and H9 (acute lymphoblastic leukemia, ALL), which is purchased from China Center for Type Culture Collection (CCTCC).
(§4) Obtaining 6000 well-growing leukemia cells and inoculating them into wells of a 96-well cell culture plate. The culture medium is the 1640 cell culture medium containing 10% fetal bovine serum. After adding the 2-substituted oleanolic acid derivatives of different concentrations and mixing uniformly, placing the plate in a carbon dioxide cell incubator (5% CO2) at 37° C. and incubated for 72 hours. Then the relative number of viable cells is determined by MTT method. In this experiment, cell proliferation inhibition rate in control group (not treated with any compound) is set as 0%.

K562/adr cell line = test: leukemia cell growth inhibition, MTT; type: cell-based; settings: Homo sapiens, 72 h; for IC50: K562/Adr; for inhibition at 16 µg/mL: K562/adr, 16 μg/mL compound, read-out: IR (cell proliferation inhibition rate)
Source text: as §3, §4

NB4 cell line = test: leukemia cell growth inhibition, MTT; type: cell-based; settings: Homo sapiens, NB-4; for inhibition at 16 µg/mL: NB4, 16 μg/mL compound, 72 h, read-out: IR (cell proliferation inhibition rate); for IC50: NB4, 72 h
Source text: as §3, §4

Kasumi-1 cell line = test: leukemia cell growth inhibition, MTT; type: cell-based; settings: Homo sapiens; for inhibition at 16 µg/mL: Kasumi-1, 16 μg/mL compound, 72 h, read-out: IR (cell proliferation inhibition rate); for IC50: Kasumi-1, 72 h
Source text: as §3, §4

Jurkat cell line = test: leukemia cell growth inhibition, MTT; type: cell-based; settings: Homo sapiens, 72 h; for inhibition at 16 µg/mL: 16 μg/mL compound, read-out: IR (cell proliferation inhibition rate)
Source text: as §3, §4

RPMI8226 cell line = test: multiple myeloma cell growth inhibition, MTT; type: cell-based; settings: Homo sapiens, RPMI-8226; for inhibition at 16 µg/mL: RPMI8226, 16 μg/mL compound, 72 h, read-out: IR (cell proliferation inhibition rate); for IC50: RPMI8226, 72 h
Method: Multiple myeloma cell lines: RPMI8226 (multiple myeloma), purchased from Fuxiang Bio-tech Co. Ltd., Shanghai, China.
Obtaining 6000 well-growing cells as above and inoculating them into wells of a 96-well cell culture plate. The culture medium is the 1640 cell culture medium containing 10% fetal bovine serum. After adding the 2-substituted oleanolic acid derivatives of different concentrations and mixing uniformly, placing the plate in a carbon dioxide cell incubator (5% CO2) at 37° C. and incubated for 72 hours. Then the relative number of viable cells is determined by MTT method. In this experiment, cell proliferation inhibition rate in control group (not treated with any compound) is set as 0%.

Hep G2 cell line = test: solid tumor cell growth inhibition, MTT; type: cell-based, human; settings: Homo sapiens; for inhibition at 16 µg/mL: HepG2, 72 h, Hep G2, 16 μg/mL compound, 72 h, read-out: IR (cell proliferation inhibition rate); for IC50: HepG2, Hep G2, 72 h
Method: as §1, §2

| IC50 (RKO cell line) [µg/mL] | IC50 (MGC 803 cell line) [µg/mL] | IC50 (A549 cell line) [µg/mL] | IC50 (PC-3 cell line) [µg/mL] | IC50 (U87 MG cell line) [µg/mL] | IC50 (Hep-2 cell line) [µg/mL] | IC50 (PANC-1 cell line) [µg/mL] | IC50 (Hela cell line) [µg/mL] | IC50 (CaES-17 cell line) [µg/mL] | IC50 (SK-OV-3 cell line) [µg/mL] | SMILES | inhibition at 16 µg/mL (RKO cell line) [%] | inhibition at 16 µg/mL (MGC 803 cell line) [%] | inhibition at 16 µg/mL (A549 cell line) [%] | inhibition at 16 µg/mL (PC-3 cell line) [%] | inhibition at 16 µg/mL (U87 MG cell line) [%] | inhibition at 16 µg/mL (Hep-2 cell line) [%] | inhibition at 16 µg/mL (PANC-1 cell line) [%] | inhibition at 16 µg/mL (Hela cell line) [%] | inhibition at 16 µg/mL (CaES-17 cell line) [%] | inhibition at 16 µg/mL (SK-OV-3 cell line) [%] | also measured |
| --- | --- | --- | --- | --- | --- | --- | --- | --- | --- | --- | --- | --- | --- | --- | --- | --- | --- | --- | --- | --- | --- |
| 7.4 (≈ 11.9 µM) | 7.32 (≈ 11.8 µM) | 7.7 (≈ 12.4 µM) | 9.91 (≈ 15.9 µM) | 10 (≈ 16.1 µM) | 10.1 (≈ 16.2 µM) | 8.77 (≈ 14.1 µM) | 9.28 (≈ 14.9 µM) | 8.88 (≈ 14.3 µM) | 9.14 (≈ 14.7 µM) | COC(=O)[C@]12CCC(C)(C)C[C@H]1C1=CC[C@@H]3[C@@]4(C)CC(C(=O)NCCN5CCCCC5)C(=O)C(C)(C)[C@@H]4CC[C@@]3(C)[C@]1(C)CC2 (some centres unmarked) [BS-OA-004] | 98.9 | 98.1 | 92 | 89.8 | 98 | 85.5 | 94.1 | 99.4 | 81.2 | 94.9 | IC50 (MG-63 cell line): 8.37 µg/mL (≈ 13.4 µM); inhibition at 16 µg/mL (MG-63 cell line): 99%; inhibition at 16 µg/mL (CNE cell line): 97.3%; IC50 (CNE cell line): 8.46 µg/mL (≈ 13.6 µM); inhibition at 16 µg/mL (Becap37 cell line): 43.9%; IC50 (Becap37 cell line): > 16 µg/mL; IC50 (H9 cell line): 5.67 µg/mL (≈ 9.1 µM); inhibition at 16 µg/mL (H9 cell line): 98.2%; IC50 (K562/adr cell line): 2.41 µg/mL (≈ 3.87 µM); inhibition at 16 µg/mL (K562/adr cell line): 98.3%; inhibition at 16 µg/mL (NB4 cell line): 100%; IC50 (NB4 cell line): 2.84 µg/mL (≈ 4.56 µM); inhibition at 16 µg/mL (Kasumi-1 cell line): 99.6%; IC50 (Kasumi-1 cell line): 6.5 µg/mL (≈ 10.4 µM); inhibition at 16 µg/mL (Jurkat cell line): 97.7%; IC50 (Jurkat cell line): 6.15 µg/mL (≈ 9.87 µM); inhibition at 16 µg/mL (RPMI8226 cell line): 98.3%; IC50 (RPMI8226 cell line): 2.08 µg/mL (≈ 3.34 µM); inhibition at 16 µg/mL (Hep G2 cell line): 100%; IC50 (Hep G2 cell line): 4.89 µg/mL (≈ 7.85 µM) |
| 3.19 (≈ 5.24 µM) | 2.7 (≈ 4.43 µM) | 2.19 (≈ 3.6 µM) | 5.11 (≈ 8.39 µM) | 2.5 (≈ 4.11 µM) | 5.09 (≈ 8.36 µM) | 4.54 (≈ 7.46 µM) | 4.05 (≈ 6.65 µM) | 3.34 (≈ 5.49 µM) | 4.23 (≈ 6.95 µM) | COC(=O)[C@]12CCC(C)(C)CC1C1=CCC3[C@@]4(C)CC(C(=O)NCCN5CCCC5)C(=O)C(C)(C)C4CC[C@@]3(C)[C@]1(C)CC2 (some centres unmarked) [BS-OA-005] | 98.7 | 99.3 | 96.8 | 99.2 | 100 | 99.2 | 97.8 | 98.6 | 98.9 | 98.3 | IC50 (MG-63 cell line): 2.31 µg/mL (≈ 3.79 µM); inhibition at 16 µg/mL (MG-63 cell line): 99.7%; inhibition at 16 µg/mL (CNE cell line): 98.6%; IC50 (CNE cell line): 3.65 µg/mL (≈ 5.99 µM); inhibition at 16 µg/mL (Becap37 cell line): 98.6%; IC50 (Becap37 cell line): 5.68 µg/mL (≈ 9.33 µM); IC50 (H9 cell line): 3.16 µg/mL (≈ 5.19 µM); inhibition at 16 µg/mL (H9 cell line): 96.2%; IC50 (K562/adr cell line): 1.16 µg/mL (≈ 1.91 µM); inhibition at 16 µg/mL (K562/adr cell line): 100%; inhibition at 16 µg/mL (NB4 cell line): 100%; IC50 (NB4 cell line): 2.73 µg/mL (≈ 4.48 µM); inhibition at 16 µg/mL (Kasumi-1 cell line): 99.8%; IC50 (Kasumi-1 cell line): 3.98 µg/mL (≈ 6.54 µM); inhibition at 16 µg/mL (Jurkat cell line): 98.1%; IC50 (Jurkat cell line): 2.33 µg/mL (≈ 3.83 µM); inhibition at 16 µg/mL (RPMI8226 cell line): 99.2%; IC50 (RPMI8226 cell line): 0.69 µg/mL (≈ 1.13 µM); inhibition at 16 µg/mL (Hep G2 cell line): > 96%; IC50 (Hep G2 cell line): 2.53 µg/mL (≈ 4.15 µM) |
